{"source": "patent US20250197490A1", "about": "“ANTI-CORTICOTROPIN-RELEASING HORMONE ANTIBODIES AND USE IN CONGENITAL ADRENAL HYPERPLASIA” (HBM ALPHA THERAPEUTICS, INC., priority 2021, published 2025)", "test_system": "human CRHR1", "experiment": "CRH-induced luciferase reporter blocking in CHO-CRE-hCRHR1 cells", "format": "cell-based", "conditions": "in words", "experimental": "To generate a CHO-CRE-Luciferase Reporter stable cell line, a mixture of 2 million CHO-K1 cells with 10 μg of pGL4.29/luc2P/CRE/Hygro plasmid in 100 μl of Ingenio solution was transferred into electroporation cuvettes and subjected to 1 or 2 pulses using an Electro Cell Manipulator (950 uF and 120V). The processed cells were transferred into a 6-well plate with 2 mL of Dulbecco's Modified Eagle's Medium (DMEM)/F12 with 10% fetal bovine serum (FBS). After 24 hours, selection antibiotic hygromycin at 500 μg/ml was added to the cells. […] Using matrix dilution, the pool of CHO-CRE cells was subcloned into 96-well plates. Individual stable clones were harvested when selected colonies became obvious. Positive clones were validated using a series of diluted forskolin. Validated positive clones were frozen for the future use.\nTo create CHO-CRE-hCRHR1,-hCRHR2,-mCRHR1, and -mCRHR2 reporter cell lines, pcDNA3.1-hCRHR1,-hCRHR2,-mCRHR1, and -mCRHR2 were introduced into CHO-CRE cells established above by electroporation as described above. Selection antibiotics hygromycin at 500 μg/ml and G418 at 1,000 μg/ml were employed. […]\n50 μl of 4× serially diluted antibodies was added (8 points, ¼ diluted by growth medium) to plates containing CHO-CRE-hCRHR1 cells, and 50 μl of 4×CRH (4× is 2 nM, final is 0.5 nM) was added. […] Plates were read in a luciferase plate reader (En Vision, PerkinElmer).", "data": [{"smiles": "CCCCN(CC)c1nc(C)nc2c1c(C)c(C)n2-c1c(C)cc(C)cc1C", "note": "[Antalarmin, N-butyl-N-ethyl-(2,5,6-trimethyl-7-(2,4,6-trimethylphenyl)-7H-pyrrolo (2,3-d)pyrimidin-4-yl)amine, reference compound]", "values": [{"measurement": "blocking activity in human CRHR1 luciferase reporter assay (CRH-mediated luciferase expression)", "result": "blocked"}]}]}
